Molecules are shown by their SMILES. Where two headings read alike, the source gives them in different places.

Results on 17 molecules are retold here after patent US11285156B2, “Substituted piperazines as KRAS G12C inhibitors” (Amgen Inc., priority 2018, dated 2022).

The target of assay [1] is GDP-bound KRAS protein (aa 1-169), containing both G12C and C118A amino acid substitutions (Homo sapiens (Human), UniProt P01116, C118A/G12C). Nature of the assay: Coupled nucleotide exchange assay (SOS-mediated nucleotide exchange, AlphaScreen). Format: biochemical. As to conditions: 5 min compound pre-incubation; for IC50: read-out: Coupled exchange IC50 (5 min; μM).
Assay [2] deals with Phosphorylation of ERK1/2 in MIA PaCa-2 cells. Description: Phospho-ERK1/2 MSD assay in MIA PaCa-2 cells. As to conditions: read-out: p-ERK IC50 (2 h, MiaPaCa-2; μM). It counts as cell-based. The gist of the method: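 Phospho-ERK1/2 measured by MSD electrochemiluminescence kit in RIPA lysates of MIA PaCa-2 cells. Cells were treated with compound titrations for 2 or 4 h at 37 °C, 5% CO2, followed by a 10 min pulse of 10 ng/mL EGF.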

Assay [3] concerns Phosphorylation of ERK1/2 in A549 cells. Nature of the assay: Phospho-ERK1/2 MSD assay in A549 cells. It counts as cell-based. As to conditions: read-out: p-ERK IC50 (2 h, A549; μM). The gist of the method:
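Phospho-ERK1/2 was quantified by MSD immunoassay in RIPA lysates of MIA PaCa-2 or A549 cells. Before lysis, cells received 10 ng/mL EGF for 10 min after 2 or 4 h exposure at 37° C. to a compound concentration series.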

[4] abbreviates: Homo sapiens, MIA PaCa-2, 2 h, 2 h compound treatment, MIA PaCa-2 cells, EGF stimulated.
Setting [5] is: Homo sapiens, A549, 2 h, 2 h compound treatment, A549 cells, EGF stimulated.
Where [6] appears, read: 2 h compound treatment, MIA PaCa-2 cells, EGF stimulated.
Where [7] appears, read: 2 h compound treatment, A549 cells, EGF stimulated.

Chain of GDP-bound KRAS protein (aa 1-169), containing both G12C and C118A amino acid substitutions (P01116 other isoform, or with tags, fused parts or gaps G12C/C118A): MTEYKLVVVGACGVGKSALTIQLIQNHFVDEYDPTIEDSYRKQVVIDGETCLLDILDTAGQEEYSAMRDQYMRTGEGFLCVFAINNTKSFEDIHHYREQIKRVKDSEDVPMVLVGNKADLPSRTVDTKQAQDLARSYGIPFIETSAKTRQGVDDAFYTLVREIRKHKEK

Consider `[2H]C1([2H])CN(c2nc(=O)n(-c3c(C)ccnc3C(C)C)c3nc(-c4c(O)cccc4F)c(F)cc23)CC([2H])([2H])N1C(=O)C=C` (atropisomer, axis not shown; (M)) [Example 72-20, (M)-6-Fluoro-7-(2-fluoro-6-hydroxy-phenyl)-1-(2-isopropyl-4-methyl-3-pyridyl)-4-(3,3,5,5-tetradeuterio-4-prop-2-enoyl-piperazin-1-yl)pyrido[2,3-d]pyrimidin-2-one], for which the “Coupled exchange IC50 (5 min; μM)” value in assay [1] turned out to be 0.382 µM. Also, the values for the IC50 in assay [2] (setting [4]) and in assay [3] (setting [5]) were 0.223 µM and above 7.5 µM, respectively.
For `[2H]C1([2H])CN(C(=O)C=C)CC([2H])([2H])N1c1nc(=O)n(-c2c(C)ccnc2C(C)C)c2nc(-c3c(O)cccc3F)c(F)cc12` (atropisomer, axis not shown; (M)) [Example 72-21, (M)-6-Fluoro-7-(2-fluoro-6-hydroxy-phenyl)-1-(2-isopropyl-4-methyl-3-pyridyl)-4-(2,2,6,6-tetradeuterio-4-prop-2-enoyl-piperazin-1-yl)pyrido[2,3-d]pyrimidin-2-one], in that order: 0.468 µM, 0.306 µM and above 7.5 µM.
As to `C=CC(=O)N1C[C@H](C)N(c2nc(=O)n(-c3c(C)ccnc3C(C)C)c3nc(-c4ccccc4C(C)C)c(Cl)cc23)C[C@H]1C` (atropisomer, axis not shown; (M)) [Example 92-1, (M)-6-Chloro-4-[(2S,5R)-2,5-dimethyl-4-prop-2-enoyl-piperazin-1-yl]-1-(2-isopropyl-4-methyl-3-pyridyl)-7-(2-isopropylphenyl)pyrido[2,3-d]pyrimidin-2-one], the 50% inhibitory concentration (IC50) in assay [1] is 0.016 µM; in assay [2] (setting [6]), 0.014 µM; in assay [3] (setting [7]) it was above 7.5 µM.
The like results for `C=CC(=O)N1CCN(c2nc(=O)n(-c3c(C)ccnc3C(C)C)c3nc(-c4c(N)cccc4F)c(Cl)cc23)C[C@H]1C` (atropisomer, axis not shown; (M)) [Example 92-2, (M)-7-(2-Amino-6-fluoro-phenyl)-6-chloro-1-(2-isopropyl-4-methyl-3-pyridyl)-4-[(3R)-3-methyl-4-prop-2-enoyl-piperazin-1-yl]pyrido[2,3-d]pyrimidin-2-one] were, in that order, 0.024 µM, 0.035 µM and above 7.5 µM.
For `C=CC(=O)N1C[C@H](C)N(c2nc(=O)n(-c3c(C)ccnc3C(C)C)c3nc(-c4ccsc4C)c(Cl)cc23)C[C@H]1C` (atropisomer, axis not shown; (M)) [Example 92-3, (M)-6-Chloro-4-[(2S,5R)-2,5-dimethyl-4-prop-2-enoyl-piperazin-1-yl]-1-(2-isopropyl-4-methyl-3-pyridyl)-7-(2-methyl-3-thienyl)pyrido[2,3-d]pyrimidin-2-one], the IC50 in assay [1] was 0.095 µM; in assay [2] (setting [4]), 0.094 µM; in assay [3] (setting [5]), above 7.5 µM.
For `C=CC(=O)N1C[C@H](C)N(c2nc(=O)n(-c3c(C)ccnc3C(C)C)c3nc(-c4ccccc4C4CC4)c(Cl)cc23)C[C@H]1C` (atropisomer, axis not shown; (M)) [Example 92-4, (M)-6-Chloro-7-(2-cyclopropylphenyl)-4-[(2S,5R)-2,5-dimethyl-4-prop-2-enoyl-piperazin-1-yl]-1-(2-isopropyl-4-methyl-3-pyridyl)pyrido [2,3-d]pyrimidin-2-one], in that order: 0.044 µM, 0.042 µM and above 7.5 µM.
The like results for `C=CC(=O)N1C[C@H](C)N(c2nc(=O)n(-c3c(C)ccnc3C(C)C)c3nc(C4=CCCCCC4)c(Cl)cc23)C[C@H]1C` (atropisomer, axis not shown; (M)) [Example 92-10, (M)-6-Chloro-7-(cyclohepten-1-yl)-4-[(2S,5R)-2,5-dimethyl-4-prop-2-enoyl-piperazin-1-yl]-1-(2-isopropyl-4-methyl-3-pyridyl)pyrido [2,3-d]pyrimidin-2-one] were, in that order, 0.059 µM, 0.367 µM and above 7.5 µM.
As for `C=CC(=O)N1C[C@H](C)N(c2nc(=O)n(-c3c(C)ccnc3C(C)C)c3nc(-c4cccc5cc[nH]c45)c(Cl)cc23)C[C@H]1C` (atropisomer, axis not shown; (M)) [Example 92-11, (M)-6-Chloro-4-[(2S,5R)-2,5-dimethyl-4-prop-2-enoyl-piperazin-1-yl]-7-(lH-indol-7-yl)-1-(2-isopropyl-4-methyl-3-pyridyl)pyrido [2,3-d]pyrimidin-2-one], the concentration for half-maximal inhibition (IC50) in assay [1] is 0.086 µM; in assay [2] (setting [4]), 0.262 µM; in assay [3] (setting [5]) it was above 7.5 µM.
On to `C=CC(=O)N1C[C@H](C)N(c2nc(=O)n(-c3c(C)ccnc3C(C)C)c3nc(-c4ccccc4N)c(Cl)cc23)C[C@H]1C` (atropisomer, axis not shown; (M)) [Example 92-12, (M)-7-(2-Aminophenyl)-6-chloro-4-[(2S,5R)-2,5-dimethyl-4-prop-2-enoyl-piperazin-1-yl]-1-(2-isopropyl-4-methyl-3-pyridyl)pyrido[2,3-d]pyrimidin-2-one], for which the IC50 in assay [1] was 0.019 µM; in assay [2] (setting [4]), 0.022 µM; in assay [3] (setting [5]), above 7.5 µM.
Turning to `C=CC(=O)N1C[C@H](C)N(c2nc(=O)n(-c3c(CC)ccnc3C(C)C)c3nc(-c4ccccc4F)c(Cl)cc23)C[C@H]1C` [Example 55-58, 6-Chloro-4-[(2S,5R)-2,5-dimethyl-4-prop-2-enoyl-piperazin-1-yl]-l-(4-ethyl-2-isopropyl-3-pyridyl)-7-(2-fluorophenyl)pyrido[2,3-d]pyrimidin-2-one], the IC50 in assay [2] (setting [4]) is 0.056 µM; in assay [3] (setting [5]) it was above 7.5 µM.
The like results for `C=CC(=O)N1C[C@H](C)N(c2nc(=O)n(-c3c(C(C)C)cccc3C(C)C)c3nc(-c4ccccc4F)c(Cl)cc23)C[C@H]1C` [Example 102-1, 4-((2S,5R)-4-Acryloyl-2,5-dimethylpiperazin-1-yl)-6-chloro-1-(2,6-diisopropylphenyl)-7-(2-fluorophenyl)pyrido[2,3-d]pyrimidin-2(1H)-one] were, in that order, 0.395 µM and 5.25 µM.
Turning to `C=CC(=O)N1C[C@H](C)N(c2nc(=O)n(-c3c(C(C)C)ccnc3C(C)C)c3nc(-c4ccccc4F)c(Cl)cc23)C[C@H]1C` [Example 102-3, 6-Chloro-1-(2,4-diisopropyl-3-pyridyl)-4-[(2S,5R)-2,5-dimethyl-4-prop-2-enoyl-piperazin-1-yl]-7-(2-fluorophenyl) pyrido[2,3-d]pyrimidin-2-one], the IC50 in assay [2] (setting [6]) was 0.032 µM; in assay [3] (setting [5]) it was above 7.5 µM.
For `C=CC(=O)N1C[C@H](C)N(c2nc(=O)n(-c3c(C(C)C)cc(Br)nc3C(C)C)c3nc(-c4ccccc4F)c(Cl)cc23)C[C@H]1C` [Example 102-4, 1-(6-Bromo-2,4-diisopropyl-3-pyridyl)-6-chloro-4-[(2S,5R)-2,5-dimethyl-4-prop-2-enoyl-piperazin-1-yl]-7-(2-fluorophenyl) pyrido[2,3-d]pyrimidin-2-one], the IC50 in assay [2] (setting [4]) turned out to be 0.262 µM; in assay [3] (setting [5]) it was 4.73 µM.
Regarding `C=CC(=O)N1C[C@H](C)N(c2nc(=O)n(-c3c(C(C)C)ccnc3C(C)C)c3nc(-c4ccccc4F)c(Cl)cc23)C[C@H]1C` [Example 124-1, 6-Chloro-1-(2,4-diisopropyl-3-pyridyl)-4-[(2S,5R)-2,5-dimethyl-4-prop-2-enoyl-piperazin-1-yl]-7-(2-fluorophenyl)pyrido[2,3-d]pyrimidin-2-one], the half-maximal inhibitory concentration (IC50) in assay [2] (setting [6]) is 0.024 µM; in assay [3] (setting [7]), above 7.5 µM.
With `C=CC(=O)N1C[C@H](C)N(c2nc(=O)n(-c3c(C(C)C)ccnc3C(C)C)c3nc(-c4ccccc4)c(Cl)cc23)C[C@H]1C` [Example 124-7, 6-Chloro-1-(2,4-diisopropyl-3-pyridyl)-4-[(2S,5R)-2,5-dimethyl-4-prop-2-enoyl-piperazin-1-yl]-7-phenyl-pyrido[2,3-d]pyrimidin-2-one], the figures for the IC50 in assay [2] (setting [4]) and in assay [3] (setting [5]) were 0.093 µM and above 7.5 µM, respectively.
On to `C=CC(=O)N1C[C@H](C)N(c2nc(=O)n(-c3c(C(C)C)ccnc3C(C)C)c3nc(-c4ccccc4C(C)C)c(Cl)cc23)C[C@H]1C` [Example 124-8, 6-Chloro-1-(2,4-diisopropyl-3-pyridyl)-4-[(2S,5R)-2,5-dimethyl-4-prop-2-enoyl-piperazin-1-yl]-7-(2-isopropylphenyl)pyrido[2,3-d]pyrimidin-2-one], for which the IC50 in assay [2] (setting [4]) was determined as 0.24 µM; in assay [3] (setting [5]), 6.36 µM.
As for `C=CC(=O)N1C[C@H](C)N(c2nc(=O)n(-c3c(C(C)C)nc(CN(C)C)nc3C(C)C)c3nc(-c4ccccc4F)c(Cl)cc23)C[C@H]1C` [Example 160, 4-((2S,5R)-4-Acryloyl-2,5-dimethylpiperazin-1-yl)-6-chloro-1-(2-((dimethylamino)methyl)-4,6-diisopropylpyrimidin-5-yl)-7-(2-fluorophenyl)pyrido[2,3-d]pyrimidin-2(1H)-one], the concentration for half-maximal inhibition (IC50) in assay [2] (Homo sapiens, MIA PaCa-2, 2 h) is 0.058 µM; in assay [3] (Homo sapiens, A549, 2 h) it was above 7.5 µM.

Broadly, the IC50 is the concentration that inhibits the measured activity by half.
